Laboratory results published in ChEMBL document CHEMBL5352473, “Design, synthesis, biological evaluation and crystal structure determination of dual modulators of carbonic anhydrases and estrogen receptors” (Eur J Med Chem, 2023).
Active and inactive are the calls of the source. The calls are words filed in the database; no cut-off is given here.

Experiments:
Carbonic anhydrase 1 = Carbonic anhydrase 1 (Homo sapiens, UniProt P00915); assay: Binding affinity to human CA1 assessed as inhibition constant incubated for 6 hrs by phenol red dye based stopped flow CO2 hydration assay
Carbonic anhydrase 1, sequence (P00915 whole entry): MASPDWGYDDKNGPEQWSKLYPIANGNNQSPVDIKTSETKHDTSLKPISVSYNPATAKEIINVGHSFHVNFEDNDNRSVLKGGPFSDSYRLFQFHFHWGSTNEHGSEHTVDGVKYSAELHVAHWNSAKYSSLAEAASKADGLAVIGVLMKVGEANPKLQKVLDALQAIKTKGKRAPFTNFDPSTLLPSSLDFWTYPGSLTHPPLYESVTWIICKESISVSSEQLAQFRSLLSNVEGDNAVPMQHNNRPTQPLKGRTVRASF

Carbonic anhydrase 9 = Carbonic anhydrase 9 (Homo sapiens, UniProt Q16790)
Description: Binding affinity to human CA9 assessed as inhibition constant incubated for 6 hrs by phenol red dye based stopped flow CO2 hydration assay

Carbonic anhydrase 2 = Carbonic anhydrase 2 (Homo sapiens, UniProt P00918); assay: Binding affinity to human CA2 assessed as inhibition constant incubated for 6 hrs by phenol red dye based stopped flow CO2 hydration assay
[1] = target: Estrogen receptor beta (Homo sapiens) (UniProt Q92731); assay: Partial agonist activity at wild type human ERbeta in HEK-293T cells transfected with 3xERE-driven luciferase reporter plasmid by luciferase reporter gene assay; format: cell-based
Estrogen receptor beta (Homo sapiens), sequence (Q92731 whole entry): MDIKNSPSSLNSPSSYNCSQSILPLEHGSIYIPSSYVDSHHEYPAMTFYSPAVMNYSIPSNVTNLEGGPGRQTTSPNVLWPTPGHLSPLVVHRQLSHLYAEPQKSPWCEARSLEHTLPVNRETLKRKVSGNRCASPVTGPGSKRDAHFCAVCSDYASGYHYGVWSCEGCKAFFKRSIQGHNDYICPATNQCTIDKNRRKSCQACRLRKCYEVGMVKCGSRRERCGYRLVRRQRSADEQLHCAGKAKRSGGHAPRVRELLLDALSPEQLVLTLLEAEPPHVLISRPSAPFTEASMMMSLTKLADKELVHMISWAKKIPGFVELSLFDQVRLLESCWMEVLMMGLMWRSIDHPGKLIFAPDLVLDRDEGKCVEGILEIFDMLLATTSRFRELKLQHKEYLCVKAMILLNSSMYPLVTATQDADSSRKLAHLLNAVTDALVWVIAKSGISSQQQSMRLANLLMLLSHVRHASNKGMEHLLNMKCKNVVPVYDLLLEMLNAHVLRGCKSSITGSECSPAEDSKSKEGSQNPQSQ

Carbonic anhydrase 12 = Carbonic anhydrase 12 (Homo sapiens, UniProt O43570); assay: Binding affinity to human CA12 assessed as inhibition constant incubated for 6 hrs by phenol red dye based stopped flow CO2 hydration assay
Carbonic anhydrase 12, sequence (O43570 whole entry): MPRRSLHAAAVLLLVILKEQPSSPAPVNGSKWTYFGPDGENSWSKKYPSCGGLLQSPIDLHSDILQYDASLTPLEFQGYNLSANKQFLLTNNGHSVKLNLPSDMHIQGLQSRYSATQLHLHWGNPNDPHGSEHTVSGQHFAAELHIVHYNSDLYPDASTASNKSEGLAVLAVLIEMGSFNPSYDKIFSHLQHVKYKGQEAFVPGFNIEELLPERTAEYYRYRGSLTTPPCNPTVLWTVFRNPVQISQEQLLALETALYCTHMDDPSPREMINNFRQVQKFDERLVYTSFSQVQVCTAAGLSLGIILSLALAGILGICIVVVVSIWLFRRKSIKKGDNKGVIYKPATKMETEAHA

## NS(=O)(=O)c1ccc2c(c1)C1C=CCC1C(c1ccccc1Cl)N2 (racemic)
Carbonic anhydrase 1
  Ki: 0.0736 µM
Carbonic anhydrase 9
  Ki: 2.09 µM
Carbonic anhydrase 2
  Ki: 0.0022 µM
[1]
  Activity: inactive
Carbonic anhydrase 12
  Ki: 0.256 µM
